Test results from article PMC7532997, “Cytotoxic Constituents of the Bark of Hypericum roeperianum towards Multidrug-Resistant Cancer Cells” (Evidence-based Complementary and Alternative Medicine : eCAM, 2020).

Experiments:
CCRF-CEM leukemia cells = assay: Resazurin reduction assay (RRA), 72 h; assay type: cell-based; conditions: Homo sapiens, 72 h incubation
Text: (§1) Cell lines used in this work included drug-sensitive and drug-resistant phenotypes of earlier reported origin. They were all provided by Prof. Dr. Thomas Efferth from his cell lines collection; they have being used in cytotoxicity screening by our team for a decade. These include two hematological cancer cell lines, namely, the drug-sensitive CCRF-CEM leukemia cell line and its multidrug-resistant P-gp-over-expressing subline CEM/ADR5000 cells and […] carcinoma cell lines, namely, U87.MG glioblastoma cell line and its EGFR-transfected U87.MGΔEGFR subline, HCT116 (p53^+/+) colon cancer cell line and its knockout clone HCT116 (p53^−/^−), and MDA-MB-231-pcDNA3 breast cancer cell line and its BCRP-transfected multidrug-resistant MDA-MB-231-BCRP clone 23 cell line, as well as the normal AML12 hepatocytes, used to compare with HepG2 liver cancer cells.
(§2) The RRA was applied to evaluate the cytotoxicity of botanicals, the isolated phytochemicals (1–5, 7, and 8), and doxorubicin on the cell growth as reported earlier. Cells treated with various samples at different concentrations were incubated for 72 h in humidified 5% CO2 atmosphere at 37°C. Cells were further coloured with resazurin and incubated for 1–2 h; the fluorescence was further measured with an Infinite M2000 Pro™ plate reader (Tecan, Crailsheim, Germany) at 544 nm as the excitation wavelength and 590 nm as the emission wavelength. The IC50 values represented the concentrations of the sample required to inhibit 50% of cell proliferation and were calculated from a calibration curve by linear regression using Microsoft Excel 2007 [29].

[1] = tested on: CEM/ADR5000 leukemia cells (P-gp-overexpressing); assay: Resazurin reduction assay (RRA), 72 h; assay type: cell-based; conditions: Homo sapiens; CEM/ADR5000, 72 h incubation
Text: as §1, §2

[2] = tested on: HCT116 (p53+/+) colon adenocarcinoma cells; assay: Resazurin reduction assay (RRA), 72 h; assay type: cell-based; conditions: Homo sapiens, HCT-116, 72 h incubation
Text: as §1, §2

[3] = tested on: HCT116 (p53-/-) colon cancer cells; assay: Resazurin reduction assay (RRA), 72 h; assay type: cell-based; conditions: Homo sapiens, HCT-116, 72 h incubation
Text: as §1, §2

[4] = tested on: HepG2 hepatocarcinoma cells; assay: Resazurin reduction assay (RRA), 72 h; assay type: cell-based; conditions: Homo sapiens; HepG2, 72 h incubation
Text: as §1, §2

[5] = tested on: MDA-MB-231-BCRP breast cancer cells; assay: Resazurin reduction assay (RRA), 72 h; assay type: cell-based; conditions: 72 h incubation
Text: as §1, §2

[6] = tested on: MDA-MB-231-pcDNA breast cancer cells; assay: Resazurin reduction assay (RRA), 72 h; assay type: cell-based; conditions: 72 h incubation
Text: as §1, §2

U87MG glioblastoma cells = assay: Resazurin reduction assay (RRA), 72 h; assay type: cell-based; conditions: Homo sapiens, U-87 MG, 72 h incubation
Text: as §1, §2

[7] = tested on: U87MG.ΔEGFR glioblastoma cells; assay: Resazurin reduction assay (RRA), 72 h; assay type: cell-based; conditions: 72 h incubation
Text: as §1, §2

normal AML12 hepatocytes = assay: Resazurin reduction assay (RRA), 72 h; assay type: cell-based; conditions: for IC50: Mus musculus, AML12 normal hepatocytes, 72 h incubation; for Selectivity index: IC50 normal AML12 hepatocytes divided by IC50 HepG2
Text: as §1, §2

[8] = tested on: 9 tested cancer cell lines; assay: Resazurin reduction assay (RRA), whole panel; assay type: cell-based; conditions: for IC50: whole cell line panel, 72 h, read-out: IC50 in the cancer cells tested; for cytotoxic effect over the panel (in words): 9 tested cancer cell lines
Text: as §1, §2

CCRF-CEM cells [9] = assay: Flow cytometric cell cycle distribution (propidium iodide); assay type: cell-based; conditions: 24 h
Procedure: Various concentrations of botanical HRB, phytochemical 1, and doxorubicin or DMSO (solvent control) were used to treat CCRF-CEM cells (1 × 10^6 cells). Cells were further incubated for 24 h in humidified 5% CO2 atmosphere at 37°C and analyzed using a BD Accury C6 Flow Cytometer (BD Biosciences, Heidelberg, Germany) by measuring the propidium iodide fluorescence of individual nucleus, as described earlier. Experiments were conducted thrice independently with three parallel measurements.

CCRF-CEM cells [10] = assay: Apoptosis by annexin V/PI staining; assay type: cell-based; conditions: 24 h, 2 × IC50
Procedure: The CCRF-CEM cells (1 × 10^6; 1 ml) were also treated with HRB, compound 1 and doxorubicin for 24 h (in humidified 5% CO2 atmosphere at 37°C), and apoptosis was further assessed by flow cytometry using the flouresceinisothiocynate- (FITC-) conjugated annexin V/PI assay kit (eBioscience™Annexin V; Invitogen, San Diego, USA), as previously published. Briefly, treated cells were centrifuged at 1200 rpm for 5 min, then washed twice with ice-cold PBS, resuspended in 500 µl binding buffer, and stained with 5 µl FITC-conjugated annexin V ([…]) and 10 µl PI ([…]). After 15 min incubation at room temperature (RT) in the dark, cells were analyzed using a BD Accury C6 Flow Cytometer (BD Biosciences). Cells stained with only annexin V were evaluated as being in early apoptosis. Cells stained with both annexin V and propidium iodide were evaluated as being in late apoptosis or in a necrotic stage.

[11] = tested on: caspases 3/7 in CCRF-CEM cells; assay: Caspase-Glo 3/7 assay; assay type: cell-based; conditions: 6 h, compared to untreated cells
Procedure: (§3) Different concentrations of HRB and compound 1 were used to treat CCRF-CEM cells for 6 h. The activities of caspases were determined using Caspase-Glo 3/7, Caspase-Glo 8, and Caspase-Glo 9 Assay kits (Promega, Mannheim, Germany) by measuring the luminescence using an Infinite M2000 ProTM plate reader (Tecan), as reported previously.

[12] = tested on: caspase 8 in CCRF-CEM cells; assay: Caspase-Glo 8 assay; assay type: cell-based; conditions: 6 h, compared to untreated cells
Procedure: as §3

[13] = tested on: caspase 9 in CCRF-CEM cells; assay: Caspase-Glo 9 assay; assay type: cell-based; conditions: 6 h, compared to untreated cells
Procedure: as §3

[14] = tested on: reactive oxygen species in CCRF-CEM cells; assay: ROS production (H2DCFH-DA staining, flow cytometry); assay type: cell-based; conditions: 24 h
Procedure: Various concentrations of HRB and triterpenoid 1 were used to treat CCRF-CEM cells (1 × 10^6 cells); DMSO (solvent control); or hydrogen peroxide (H2O2; positive control). After 24 h incubation in humidified 5% CO2 atmosphere at 37°C, the production of ROS was evaluated using 2′,7′-dichlorodihydrofluorescein diacetate (H2DCFH-DA) (Sigma-Aldrich) staining, as described earlier.

K562 leukemia cells = tested on: K562 leukemia cells; set-up: method as in PMID 31479710; conditions: cited from earlier work
CEM-ADR5000 cells = tested on: CEM-ADR5000 cells; set-up: method as in PMID 31360210; conditions: cited from earlier work
HepG2 cells = tested on: HepG2 cells; set-up: method as in PMID 31360210; conditions: cited from earlier work
[15] = tested on: all cancer cell lines tested in the present study; set-up: method as in PMID 24075210; conditions: cited from earlier work

C[C@H]1C(=O)CC[C@@H]2[C@]1(C)CC[C@H]1[C@@]2(C)CC[C@@]2(C(=O)O)C3CC(C)(C)CC[C@]3(C)CC[C@]12C (stereo partly drawn) [Compound 1, trichadonic acid]
IC50 (CCRF-CEM leukemia cells): 14.4 ± 0.53 µM
IC50 [1]: 18.3 ± 1.56 µM
IC50 [2]: 17.4 ± 1.84 µM
IC50 [3]: 44.2 ± 3.21 µM
IC50 [4]: 21.7 ± 3.18 µM
IC50 [5]: 15 ± 1.17 µM
IC50 [6]: 16.5 ± 0.74 µM
IC50 (U87MG glioblastoma cells): 16.2 ± 1.09 µM
IC50 [7]: 14.7 ± 1.55 µM
IC50 (normal AML12 hepatocytes): 47.3 ± 0.81 µM
IC50 [8]: 14.4 to 44.2 µM
cell cycle arrest (phase, in words) (CCRF-CEM cells [9]): cell cycle arrest in the Go/G1 phase
cells in sub-G0/G1 phase (CCRF-CEM cells [9]; 1/4 × IC50): 1.86%
cells in sub-G0/G1 phase (CCRF-CEM cells [9]; 2 × IC50): 17.40%
annexin V (+)/PI (+) cells (CCRF-CEM cells [10]): 52.5%
increase of caspases 3/7 activity [11]: 2.52 fold
increase of caspase 8 activity [12]: 2.62 fold
increase of caspase 9 activity [13]: 2.23 fold
ROS production ([14]; 7.22 µM): 12.35%
ROS production ([14]; 57.76 µM): 68.12%
ROS production ([14]; 2 × IC50): ≤ 68.12%

C[C@H]1C(=O)CC[C@@H]2[C@]1(C)CC[C@H]1[C@@]2(C)CC[C@@]2(C)C3CC(C)(C)CC[C@]3(C)CC[C@]12C (stereo partly drawn) [Compound 2, fridelan-3-one]
IC50 [8]: > 100 µM

COc1cccc2c(=O)c3cc(O)ccc3oc12 [Compound 3, 2-hydroxy-5-methoxyxanthone]
IC50 (CCRF-CEM leukemia cells): 16.8 ± 0.96 µM
IC50 [1]: 53 ± 3.08 µM
IC50 [2]: 46.7 ± 3.38 µM
IC50 [3]: > 165 µM
IC50 [4]: 44.2 ± 2.65 µM
IC50 [5]: 33.6 ± 1.99 µM
IC50 [6]: 43.8 ± 3.47 µM
IC50 (U87MG glioblastoma cells): 74.4 ± 4.75 µM
IC50 [7]: 45 ± 5.22 µM
IC50 (normal AML12 hepatocytes): > 165 µM
cytotoxic effect over the panel (in words) [8]: selective cytotoxic effects

O=c1c2cc(O)c(O)cc2oc2cc(O)cc(O)c12 [Compound 4, 1,3,6,7-tetrahydroxyxanthone]
IC50 (CCRF-CEM leukemia cells): 19.9 ± 2.12 µM
IC50 [1]: 23.2 ± 1.66 µM
IC50 [2]: 40.2 ± 3.09 µM
IC50 [3]: > 154 µM
IC50 [4]: 32.4 ± 3.72 µM
IC50 [5]: 20.4 ± 1.17 µM
IC50 [6]: > 154 µM
IC50 (U87MG glioblastoma cells): 106 ± 6.74 µM
IC50 [7]: 30.4 ± 2.91 µM
Selectivity index (normal AML12 hepatocytes): 1.40
IC50 (normal AML12 hepatocytes): 45.4 ± 3.52 µM
cytotoxic effect over the panel (in words) [8]: selective cytotoxic effects

O=c1c2ccc(O)c(O)c2oc2cc(O)cc(O)c12 [Compound 5, 1,3,5,6-tetrahydroxyxanthone]
IC50 (CCRF-CEM leukemia cells): 38.6 ± 2.11 µM
IC50 [1]: 38.5 ± 4.07 µM
IC50 [2]: 75.5 ± 6.1 µM
IC50 [3]: 112 ± 8.49 µM
IC50 [4]: 64.7 ± 5.77 µM
IC50 [5]: 62.9 ± 5.32 µM
IC50 [6]: 75.2 ± 4.88 µM
IC50 (U87MG glioblastoma cells): 61.4 ± 3.39 µM
IC50 [7]: 59 ± 6.01 µM
IC50 (normal AML12 hepatocytes): 150 ± 7.03 µM
cytotoxic effect against K562 (K562 leukemia cells): 12.98 µg/mL
IC50 (K562 leukemia cells; read-out: cytotoxic effect against K562): 49.9 µM

C=C(C)[C@@H]1CC[C@]2(C(=O)O)CC[C@]3(C)[C@H](CC[C@@H]4[C@@]5(C)CC[C@H](O)C(C)(C)[C@@H]5CC[C@]43C)[C@@H]12 [Compound 6, betulinic acid]
IC50 (CEM-ADR5000 cells): 7.65 µM
IC50 (HepG2 cells): 44.2 µM

COc1cc(C2Oc3ccc4c(=O)c5c(O)cc(O)cc5oc4c3OC2CO)cc(OC)c1O (stereo not drawn) [Compound 7, 3′-hydroxymethyl-2′-(4″-hydroxy-3″,5″-dimethoxyphenyl)-5′,6′:5,6-(6,8-dihydroxyxanthone)-1′,4′-dioxane]
IC50 (CCRF-CEM leukemia cells): 23.3 ± 1.46 µM
IC50 [1]: 54 ± 4.38 µM
IC50 [2]: > 91.7 µM
IC50 [3]: > 91.7 µM
IC50 [4]: 25.2 ± 1.69 µM
IC50 [5]: 22.2 ± 2.88 µM
IC50 [6]: 20.7 ± 1.32 µM
IC50 (U87MG glioblastoma cells): 29.7 ± 1.77 µM
IC50 [7]: 12.7 ± 0.75 µM
Selectivity index (normal AML12 hepatocytes): 0.83
IC50 (normal AML12 hepatocytes): 20.9 ± 1.17 µM
cytotoxic effect over the panel (in words) [8]: selective cytotoxic effects

COc1cc(C2Oc3ccc4c(=O)c5ccccc5oc4c3OC2CO)cc(OC)c1O (stereo not drawn) [Compound 8, 3′-hydroxymethyl-2′-(4″-hydroxy-3″,5″-dimethoxyphenyl)-5′,6′:5,6-(xanthone)-1′,4′-dioxane]
IC50 (CCRF-CEM leukemia cells): 16.3 ± 2.12 µM
IC50 [1]: 43.5 ± 2.97 µM
IC50 [2]: 37.8 ± 2.92 µM
IC50 [3]: > 85.5 µM
IC50 [4]: 31.3 ± 1.19 µM
IC50 [5]: 30.5 ± 1.88 µM
IC50 [6]: 36.9 ± 2.73 µM
IC50 (U87MG glioblastoma cells): 35.5 ± 3.28 µM
IC50 [7]: 30.6 ± 3.14 µM
IC50 (normal AML12 hepatocytes): > 85.5 µM
cytotoxic effect over the panel (in words) [8]: selective cytotoxic effects

COc1cccc2c1C(=O)c1c(O)c3c(c(O)c1C2=O)C[C@@](O)(C(=O)CO)C[C@@H]3O[C@H]1C[C@H](N)[C@H](O)[C@H](C)O1 [Doxorubicin, reference compound]
IC50 (CCRF-CEM leukemia cells): 0.02 µM
IC50 [3]: 1.78 ± 0.08 µM
IC50 [4]: 4.56 ± 0.48 µM
IC50 [5]: 0.79 ± 0.08 µM
IC50 [6]: 0.13 ± 0.01 µM
IC50 (U87MG glioblastoma cells): 0.26 ± 0.03 µM
IC50 [7]: 0.98 ± 0.07 µM
IC50 (normal AML12 hepatocytes): 52.9 ± 4.09 µM
cell cycle arrest (phase, in words) (CCRF-CEM cells [9]): S and G2/M phase arrest

OO [H2O2, Hydrogen peroxide, reference compound]
ROS levels ([14]; 50 µM): 94.30%

cudraxanthone I
IC50 [15]: < 10 µM
